Columns and labels:
[1] = relative to lidocaine; cited from earlier work
[2] = animal models, compared with bupivacaine; cited from earlier work
[3] = test system: intact skin of the lower arm; assay: Pinprick test of anesthesis after topical application to intact skin of the lower arm; assay type: in vivo
Method: The pharmaceutical compositions were topically administered to intact skin of the arm and tested for anesthesis by pinpricks to a treated area of the skin. The sensation of pain was recorded for every puncture of the skin by the pin. […] The compositions were applied to intact skin of the lower arm in a circle area of a diameter of 1-2 cm. The amount of the composition applied to the skin was kept constant and left on the skin during the study. The treated area of intact skin was subjected to repeated pinpricks and the sensation of pain was recorded.

[4] = compared with prilocaine, lidocaine or ropivacaine; cited from earlier work

SMILES	duration time of anesthesis compared to lidocaine [1]	cardiotoxicity [2]	duration of effect (effect lasted) [3]	onset of anesthesis [3]	toxicity [4]
CCCN1CCCC[C@H]1C(=O)Nc1c(C)cccc1C.Cl.O [Ropivacaine, (S)-N-(2,6-dimethylphenyl)-1-propylpiperidine-2-carboxamide hydrochloride monohydrate]	about two	less cardiotoxicity than bupivacaine	3 h	approximately 1 hour	
CCCCN1CCCCC1C(=O)Nc1c(C)cccc1C (centres unmarked) [bupivacaine, 1-Butyl-N-(2,6-dimethylphenyl)-2-piperidinecarboxamide]					more toxic than prilocaine, lidocaine or ropivacaine
